In PubChem BioAssay (NCI):
Where “and” joins values, the source holds several entries; their conditions need not be identical. Identical values can stand only once.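 Interpolation was linear, between the two tested concentrations surrounding the appropriate level; five concentrations were tested over 48 hours in 96-well plates. Abbreviation: GI50, concentration required for 50% inhibition of growth. The concentration for full growth arrest is given as TGI.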

Tests used:
Assay in all cases: growth of human tumour cells (NCI), 48 h
HT29 colon = tested on: HT29 colon
IGROV1 ovarian = tested on: IGROV1 ovarian
K-562 leukemia = tested on: K-562 leukemia
LOX IMVI melanoma = tested on: LOX IMVI melanoma
NCI-H226 lung = tested on: NCI-H226 lung
NCI-H23 lung = tested on: NCI-H23 lung
NCI-H460 lung = tested on: NCI-H460 lung
SK-MEL-5 melanoma = tested on: SK-MEL-5 melanoma
BT-549 breast = tested on: BT-549 breast
PC-3 prostate = tested on: PC-3 prostate

Structure (SMILES) | TGI (HT29 colon) | TGI (IGROV1 ovarian) | TGI (K-562 leukemia) | TGI (LOX IMVI melanoma) | TGI (NCI-H226 lung) | TGI (NCI-H23 lung) | TGI (NCI-H460 lung) | TGI (SK-MEL-5 melanoma) | TGI (BT-549 breast) | TGI (PC-3 prostate) | GI50 (HT29 colon) | GI50 (IGROV1 ovarian) | GI50 (LOX IMVI melanoma) | GI50 (NCI-H23 lung) | GI50 (SK-MEL-5 melanoma) | GI50 (K-562 leukemia) | GI50 (NCI-H226 lung)
CN(N=O)C(=O)NC(CCCCNC(=O)OCc1ccccc1)C(=O)OCc1ccccc1 (stereo not drawn) | > 100 µM | > 100 µM | > 100 µM | 37.1 µM | > 100 µM | 51.3 µM | > 100 µM | 45.4 µM |  |  |  |  |  |  |  |  | 
CC(C)N1CCOC(c2ccc(O)c(O)c2)C1 (stereo not drawn) | > 100 µM | > 100 µM | > 100 µM | > 100 µM |  | > 100 µM | > 100 µM | > 100 µM |  |  |  |  |  |  |  |  | 
COc1ccc(C(O)C(c2ccc(OCc3ccccc3)cc2)c2ccc(OCc3ccccc3)cc2)cc1 (stereo not drawn) | > 100 µM | > 100 µM | > 100 µM |  | > 100 µM | > 100 µM | > 100 µM | > 100 µM |  |  |  |  |  |  |  |  | 
O=S(=O)(c1ccccc1)N1CCC1c1ccccc1 (stereo not drawn) | > 100 µM | > 100 µM | > 100 µM | > 100 µM | > 100 µM | > 100 µM | > 100 µM | > 100 µM |  |  |  |  |  |  |  |  | 
O=C(O)c1c2c(c(O)c3c1CN(C1CCCCC1)CO3)OCN(C1CCCCC1)C2 | > 100 µM | > 100 µM | > 100 µM | 39.7 µM |  | > 100 µM | 35.1 µM | > 100 µM | > 100 µM | > 100 µM |  |  |  |  |  |  | 
O=c1cc(-c2cccc(Cl)c2)[nH]c2cc3c(cc12)OCO3 | 9.41 µM and 15.4 µM |  |  | 38.8 µM and 40.2 µM |  | 3.45 µM and 13.2 µM | > 100 µM |  | 17.1 µM | > 100 µM | 3.19 µM | 3.54 µM | 0.434 µM | 3.37 µM | 0.164 µM |  | 
O=NN(CC1(O)OCC(O)C(O)C1O)C(Cc1c[nH]c2ccccc12)C(=O)O (stereo not drawn) | > 100 µM | > 100 µM | > 100 µM | > 100 µM |  | > 100 µM | > 100 µM | > 100 µM |  |  |  |  |  |  |  |  | 
CCOc1ccc2c(c1)[n+]([O-])c(-c1ccccc1)c(N)[n+]2[O-] | > 100 µM | > 100 µM | > 100 µM | > 100 µM | > 100 µM | 91.3 µM | > 100 µM | 51.5 µM |  |  |  |  |  |  |  |  | 
O=c1c2ccccc2c(=O)n2n1-c1cccc(c1)CSSCc1cccc-2c1 |  | > 100 µM | > 100 µM | > 100 µM | > 100 µM | > 100 µM |  | > 100 µM |  |  |  | > 100 µM |  | > 100 µM | > 100 µM | > 100 µM | > 100 µM
Cc1cccc(-c2nc(=S)[nH][nH]2)c1 | > 100 µM | > 100 µM | > 100 µM |  | > 100 µM | > 100 µM | > 100 µM | > 100 µM |  |  |  |  |  |  |  |  | 
CC(C)(Sc1cc(C(C)(C)C)c(O)c(C(C)(C)C)c1)Sc1cc(C(C)(C)C)c(O)c(C(C)(C)C)c1 | > 100 µM | > 100 µM | 3.35 µM | > 100 µM |  | > 100 µM | > 100 µM | > 100 µM | > 100 µM | > 100 µM |  |  |  |  |  |  | 
CCN(CC)CC(C(=O)Nc1c(C)cccc1C)/C(C)=N\NC(=S)NN (stereo not drawn) | > 100 µM | > 100 µM | > 100 µM | > 100 µM | > 100 µM | > 100 µM | > 100 µM | > 100 µM |  |  |  |  |  |  |  |  | 
O=c1c(-c2cccc3ccccc23)c(-c2cccc3ccccc23)c1=O | 3.03 µM | > 100 µM | > 33.3 µM | 27.3 µM | 6.51 µM | 9.27 µM | 4 µM | 40 µM |  |  |  |  |  |  |  |  | 
CC1COS(=O)N1c1ccccc1 (stereo not drawn) | > 100 µM | > 100 µM | > 100 µM | > 100 µM | > 100 µM | > 100 µM | > 100 µM | > 100 µM |  |  |  |  |  |  |  |  | 
NCCNCCNCc1c2ccccc2c(CNCCNCCN)c2ccccc12 | > 100 µM | > 100 µM | > 100 µM | > 100 µM | > 100 µM | > 100 µM | > 100 µM | > 100 µM |  |  |  |  |  |  |  |  | 
O=C(O)c1ccccc1NS(=O)(=O)c1ccc(Cl)cc1 | > 100 µM | > 100 µM | > 100 µM | > 100 µM | > 100 µM | > 100 µM | > 100 µM | > 100 µM |  |  |  |  |  |  |  |  | 
OC(c1ccccc1)c1c(-c2ccccc2)[nH]c(-c2ccccc2)c1C(O)c1ccccc1 (stereo not drawn) | 17.5 µM | 12 µM | 4.64 µM | 7.37 µM | 7.32 µM | 16.5 µM | 14.2 µM | 5.27 µM |  | 21.1 µM |  |  |  |  |  |  | 
CC1=NC2(C(=O)O)C3(C(=O)O)N=C(C)OC3(C(F)(F)F)C2(C(F)(F)F)O1 (stereo not drawn) | > 100 µM | > 100 µM | > 100 µM | > 100 µM | > 100 µM | > 100 µM | > 100 µM |  |  |  |  |  |  |  |  |  | 
